Values of other authors as cited in article PMC9019041, “Structural insights into the peptide selectivity and activation of human neuromedin U receptors” (Nature Communications, 2022).
Where no end group is shown, it is not given here.

How the values were obtained:
[1] = tested on: neuromedin U receptor 1 (NMUR1); details: low selectivity; cited from earlier work
From the text: (§1) Human neuromedin U (NMU) is a 25-amino-acid endogenous peptide that was first discovered in extracts of the porcine spinal cord with a potent smooth muscle contractile activity. It is also involved in pleiotropic physiological functions, including the regulation of blood pressure, food uptake, nociception, pain perception, bone formation, and immunological responses. More recently, human neuromedin S (NMS), a 33-amino-acid endogenous peptide, was discovered, which shares an identical C-terminal heptapeptide with NMU. Unlike NMU, which is widely distributed in the central nervous system ( ...

[2] = tested on: neuromedin U receptor 2 (NMUR2); details: low selectivity; cited from earlier work
From the text: as §1

In the case of “neuromedin S (ILQRGSGTAAVDFTKKDHTATWGRPFFLFRPRN-NH2) [NMS, Human 33-amino-acid endogenous neuropeptide sharing the C-terminal heptapeptide with NMU; agonist of NMUR1 and NMUR2 (GenScript)]”, the affinity [1] is listed as “sub-nanomolar” and the affinity [2] is listed as “sub-nanomolar”.
